Experimental data taken from patent US20030125311A1, “Compounds capable of binding with the cytoskeleton” (priority 2002, published 2003).

Legend:
fetal rat brain neurons = test: Immunocytochemistry of fetal rat brain neuron cultures; assay type: cell-based; conditions: 1 μM for 2 days
Procedure: Primary cultures of E17 fetal neurons are performed according to El-Etr et al. (16). Briefly, this method consists of spreading the dissociated cells (200,000 cells/cm^2) on glass plates covered with poly-1-ornithine and cultured in a completely defined medium in 5% CO2 at 37° C. The culture conditions used permit a practically pure neuron population to be obtained.
24 h after seeding, 1 micromolar pregnenolone (final ethanol concentration 0.01%), or the solvent alone, is added and cultures are continued for 2 days. The cells are fixed in 4% paraformaldehyde, then frozen at −80° C. The cells are duly rehydrated by passages of 5 min in ethanol at concentrations of 100, 90 and 70%. After 2 washings in PBS, for 5 min, the cells are incubated in PBS containing 3% of BSA and 0.1% of Triton X100®, at ambient temperature for 1 h.
After 4 washings in PBS, the cells are incubated at 37° C. for 1 h, then at 4° C. for about 14 h, in the presence of either anti-α-tubulin monoclonal antibody diluted {fraction (1/2,000)}, or anti-MAP2 monoclonal antibody diluted {fraction (1/1,000)}, or anti-double-cortin antiserum diluted 1/300.
After 3 washings in PBS, the secondary antibody is added at ambient temperature, for 45 minutes. […]

fetal microtubules [1] = molecular target: T1, fetal microtubules (Rattus norvegicus, UniProt P15146); test: Binding of PREG [3H] to purified fetal rat brain microtubules
T1 sequence (P15146 whole entry): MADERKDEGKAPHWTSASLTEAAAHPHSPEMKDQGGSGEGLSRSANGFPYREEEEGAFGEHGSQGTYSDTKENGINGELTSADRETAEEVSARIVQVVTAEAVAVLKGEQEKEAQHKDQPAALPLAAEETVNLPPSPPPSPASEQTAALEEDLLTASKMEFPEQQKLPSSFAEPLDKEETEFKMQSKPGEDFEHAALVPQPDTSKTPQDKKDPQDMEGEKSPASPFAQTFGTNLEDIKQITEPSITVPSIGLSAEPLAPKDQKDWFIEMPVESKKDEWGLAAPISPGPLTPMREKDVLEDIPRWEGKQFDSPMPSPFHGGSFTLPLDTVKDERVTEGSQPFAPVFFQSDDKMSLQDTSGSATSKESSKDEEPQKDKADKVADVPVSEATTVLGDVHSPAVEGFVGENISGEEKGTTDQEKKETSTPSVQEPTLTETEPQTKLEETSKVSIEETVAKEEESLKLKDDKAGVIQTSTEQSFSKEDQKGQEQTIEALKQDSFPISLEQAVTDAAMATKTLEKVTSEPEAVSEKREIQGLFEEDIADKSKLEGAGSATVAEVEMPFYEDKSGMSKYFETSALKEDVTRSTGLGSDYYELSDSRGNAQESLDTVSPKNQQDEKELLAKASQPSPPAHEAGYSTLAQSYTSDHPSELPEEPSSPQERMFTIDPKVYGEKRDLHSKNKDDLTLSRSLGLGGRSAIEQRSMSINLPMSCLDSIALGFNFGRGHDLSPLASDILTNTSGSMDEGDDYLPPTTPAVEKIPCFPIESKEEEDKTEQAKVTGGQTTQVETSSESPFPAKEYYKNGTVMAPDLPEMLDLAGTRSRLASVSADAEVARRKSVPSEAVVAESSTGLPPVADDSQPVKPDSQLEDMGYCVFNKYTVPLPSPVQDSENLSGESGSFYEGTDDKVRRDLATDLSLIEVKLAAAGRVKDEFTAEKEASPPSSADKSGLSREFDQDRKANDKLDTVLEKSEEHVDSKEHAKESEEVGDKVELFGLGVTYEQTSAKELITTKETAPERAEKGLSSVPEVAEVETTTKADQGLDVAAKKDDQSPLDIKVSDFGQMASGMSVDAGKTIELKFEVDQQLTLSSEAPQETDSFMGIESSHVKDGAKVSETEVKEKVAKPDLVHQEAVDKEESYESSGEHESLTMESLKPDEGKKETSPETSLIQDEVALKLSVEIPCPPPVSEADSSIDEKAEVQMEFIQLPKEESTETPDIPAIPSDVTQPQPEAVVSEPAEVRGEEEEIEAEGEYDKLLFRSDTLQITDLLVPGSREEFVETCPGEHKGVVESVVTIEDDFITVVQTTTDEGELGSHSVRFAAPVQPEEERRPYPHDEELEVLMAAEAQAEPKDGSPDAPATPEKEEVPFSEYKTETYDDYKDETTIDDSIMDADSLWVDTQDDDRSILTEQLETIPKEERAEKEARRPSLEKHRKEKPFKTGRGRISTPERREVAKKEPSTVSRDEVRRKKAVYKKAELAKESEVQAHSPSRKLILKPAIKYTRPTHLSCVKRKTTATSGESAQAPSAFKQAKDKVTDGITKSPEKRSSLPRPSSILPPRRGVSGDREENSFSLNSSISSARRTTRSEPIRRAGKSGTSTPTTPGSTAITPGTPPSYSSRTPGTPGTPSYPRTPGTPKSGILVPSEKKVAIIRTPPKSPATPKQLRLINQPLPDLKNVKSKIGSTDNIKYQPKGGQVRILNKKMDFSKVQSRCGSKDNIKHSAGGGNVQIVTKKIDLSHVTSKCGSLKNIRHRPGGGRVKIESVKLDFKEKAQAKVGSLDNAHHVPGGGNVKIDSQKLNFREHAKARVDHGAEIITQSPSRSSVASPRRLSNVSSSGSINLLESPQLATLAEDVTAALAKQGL
Procedure: (§1) The microtubules are prepared starting from calf brain or adult or fetal rat brain according to an assembly/disassembly method, as a function of the temperature, in vitro (12).
(§2) The binding of PREG [^3H] to microtubules prepared by polymerization/depolymerization cycles was determined.

[2] = molecular target: T2, microtubules reconstituted with purified tubulin and MAP2 (Bos taurus, UniProt A0A3Q1NAK9); test: Kinetics of assembling of microtubules (turbidity at 345 nm); assay type: biochemical, calf; conditions: 500 nM steroid, 37° C., 15 min
T2 construct: from tissue; host or cells: calf brain
T2 sequence (A0A3Q1NAK9 1-1867): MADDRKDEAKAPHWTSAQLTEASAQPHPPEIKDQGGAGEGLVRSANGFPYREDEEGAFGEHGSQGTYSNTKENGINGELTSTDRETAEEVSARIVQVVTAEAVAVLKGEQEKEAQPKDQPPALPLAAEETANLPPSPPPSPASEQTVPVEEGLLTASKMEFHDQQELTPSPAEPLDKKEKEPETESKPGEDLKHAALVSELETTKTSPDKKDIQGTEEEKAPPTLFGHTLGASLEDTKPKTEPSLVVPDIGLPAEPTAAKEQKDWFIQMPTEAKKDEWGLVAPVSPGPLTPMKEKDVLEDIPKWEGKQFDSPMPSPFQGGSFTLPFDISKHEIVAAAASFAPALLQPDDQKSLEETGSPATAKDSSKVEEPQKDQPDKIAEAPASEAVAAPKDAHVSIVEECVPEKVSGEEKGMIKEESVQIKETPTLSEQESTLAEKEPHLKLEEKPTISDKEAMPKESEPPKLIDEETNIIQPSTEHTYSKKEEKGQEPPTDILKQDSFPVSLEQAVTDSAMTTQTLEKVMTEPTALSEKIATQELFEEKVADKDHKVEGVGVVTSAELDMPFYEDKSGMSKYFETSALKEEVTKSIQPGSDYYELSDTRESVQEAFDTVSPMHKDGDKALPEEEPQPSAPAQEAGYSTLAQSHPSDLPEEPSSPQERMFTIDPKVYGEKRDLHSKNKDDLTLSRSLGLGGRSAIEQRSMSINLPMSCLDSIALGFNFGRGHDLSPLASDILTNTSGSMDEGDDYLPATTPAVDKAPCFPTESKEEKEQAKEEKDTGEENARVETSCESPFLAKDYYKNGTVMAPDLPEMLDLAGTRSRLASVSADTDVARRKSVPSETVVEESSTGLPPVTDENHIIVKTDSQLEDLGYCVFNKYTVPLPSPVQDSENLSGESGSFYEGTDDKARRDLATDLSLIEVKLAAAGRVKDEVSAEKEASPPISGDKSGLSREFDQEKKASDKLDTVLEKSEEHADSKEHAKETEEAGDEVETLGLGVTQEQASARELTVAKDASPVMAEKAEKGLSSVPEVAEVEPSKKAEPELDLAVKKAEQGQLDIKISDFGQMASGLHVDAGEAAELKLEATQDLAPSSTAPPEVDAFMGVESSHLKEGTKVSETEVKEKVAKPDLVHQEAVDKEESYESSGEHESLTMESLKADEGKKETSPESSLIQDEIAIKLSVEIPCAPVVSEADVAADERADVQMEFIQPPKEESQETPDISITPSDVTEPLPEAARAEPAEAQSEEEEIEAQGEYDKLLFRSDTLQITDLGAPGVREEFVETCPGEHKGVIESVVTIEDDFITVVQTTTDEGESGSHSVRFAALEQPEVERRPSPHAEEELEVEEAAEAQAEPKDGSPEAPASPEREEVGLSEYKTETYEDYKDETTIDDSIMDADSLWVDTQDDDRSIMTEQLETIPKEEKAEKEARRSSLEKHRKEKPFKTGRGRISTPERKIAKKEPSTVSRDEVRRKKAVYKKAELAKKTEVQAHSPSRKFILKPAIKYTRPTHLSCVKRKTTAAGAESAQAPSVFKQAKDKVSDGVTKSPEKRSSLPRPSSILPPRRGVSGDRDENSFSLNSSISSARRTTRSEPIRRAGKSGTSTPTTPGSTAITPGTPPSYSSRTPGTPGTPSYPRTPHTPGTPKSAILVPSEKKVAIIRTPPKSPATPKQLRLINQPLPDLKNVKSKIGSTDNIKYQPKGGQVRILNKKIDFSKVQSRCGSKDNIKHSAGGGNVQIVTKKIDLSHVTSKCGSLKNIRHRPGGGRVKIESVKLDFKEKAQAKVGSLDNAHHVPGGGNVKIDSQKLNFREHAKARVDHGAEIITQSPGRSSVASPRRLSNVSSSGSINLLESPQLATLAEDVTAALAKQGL
Procedure: This assembling is measured by monitoring the increases of turbidity with a UVICON® spectrophotometer (Kontron Instruments, Montigny-le-Bretonneux, France)
The microtubules are reconstituted in vitro with purified tubulin (1 mg/ml) and MAP2 (0.05 mg/ml) in buffer A.
The increase of absorbance is measured at 345 nm, at 37° C. and recorded every 30 sec. for 15 min.
The assembling of microtubules is measured either in the absence of steroids (-⋄-); or in the presence of 500 nM of steroid: PREG (- -), progesterone (-X-), estradiol (-V-); or in the presence, at the same time, of PREG and progesterone (-∘-) or of PREG and estradiol (-Δ-) each at a concentration of 500 nM.

MAP2-tubulin copolymers = MAP2-tubulin copolymers (Bos taurus, UniProt A0A3Q1NAK9); test: Equilibrium binding of PREG [3H] to MAP2-tubulin copolymers; set-up: species or system calf
MAP2-tubulin copolymers, sequence (A0A3Q1NAK9 1-1867): as above
Procedure: The calf tubulin is purified according to the protocol of Weingarten et al. (13), but the step using phosphocellulose is replaced by a cation exchange column chromatography (Fractogel, Merck) (14). The microtubules and the tubulin are prepared in L buffer, supplemented with 1 mM of GTP (buffer A).
The tau and MAP2 proteins are purified according to the protocol of Fellous et al. (12) by heat denaturation of the microtubules and gel filtration on a column, Sephacryl 300® being used instead of the Ultrogel ACA 34. The tau proteins are then Further purified according to the method of Lindwall and Cole (15).
Purified calf brain tubulin (90 μg/ml), MAP2 (45 μg/ml) or tau protein (25 μg/ml) is incubated with 100 nM of PREG [^3H], with or without a 1,000-fold excess of non-radioactive PREG.
The B/U values are reported in FIG. 5 as a function of B in nM, (-∘-) representing equilibrium binding of purified calf brain MAP2, and (-∘-) the equilibrium binding of purified calf brain MAP2 associated with purified calf brain tubulin (for the experimental details, see FIG. 1).

fetal microtubules [3] = molecular target: T1, fetal microtubules; test: Competition for PREG [3H] binding to fetal microtubules (RCR); conditions: PREG = 100
Procedure: In trials of competition between pregnenolone and different steroids for the binding studied, 0.2 ml of cytosol is incubated with 100 nM of PREG [^3H] and a 1-, 10-, 100-, and 1,000-fold excess of non-radioactive steroid.
as §1
The relative competition index was determined as ratios of the concentrations of the competitor (in the […]) versus PREG causing a reduction of 50% of the specific binding of PREG [^3H]×100 (mean±standard error, n=3).
as §2

## CC(=O)C1CCC2C3CC=C4CC(O)CCC4(C)C3CCC12C (centres unmarked) [Pregnenolone]
Fetal rat brain neurons
  immunolabeling of MAP2: increases the immunolabeling of MAP2 of the cell bodies and induces its extension to close nerve cells
  staining with anti-α tubulin or anti-double-cortin antibodies: does not show any difference
Fetal microtubules [1]
  Bmax: 3.7 pmol/mg of protein
  Kd: 42.9 nM
[2]
  effect on assembling of microtubules (absorbance at 345 nm): induces a strong increase of both the speed and the extent of the assembling of the tubulin
MAP2-tubulin copolymers
  Bmax: 135 pmol/mg of MAP2
  Kd: 44 nM
Fetal microtubules [3]
  RCR: 100
